Reference: PMC4220977, “Enzyme–adenylate structure of a bacterial ATP-dependent DNA ligase with a minimized DNA-binding surface” (Acta Crystallographica Section D: Biological Crystallography, 2014)

How the values were obtained:
Psy-Lig = molecular target: T1, Psy-Lig (Psychromonas sp. SP041, UniProt A0ACD6BAT9); test: X-ray crystal structure, […] Å (SeMet protein); format: binding; conditions: covalent; phosphoamide bond to Lys25 side chain (mature numbering), enzyme-adenylate intermediate formed from ATP; active site
T1 construct: mature protein, 40-residue periplasmic leader removed (cleavage Ala40/Gln41), 257 residues; N-terminal His tag and TEV site, vector pHMGWA, expressed in E. coli; pre-adenylated with ATP; SeMet form crystallised

[1] = substrate: Nc1ncnc2c1ncn2[C@@H]1O[C@H](COP(=O)(O)OP(=O)(O)OP(=O)(O)O)[C@@H](O)[C@H]1O; test: molecular beacon fluorescence nick-sealing assay, Michaelis-Menten fit; format: biochemical, Psychromonas sp. SP041; conditions: 300 nM nicked ds-DNA beacon, 2.0 nM enzyme, 10 mM MgCl2, 100 mM NaCl, 1 mM DTT, 50 mM Tris pH 8.0, 30 °C, ATP 0-50 µM

Molecule: Nc1ncnc2c1ncn2[C@@H]1O[C@H](COP(=O)(O)O)[C@@H](O)[C@H]1O [AMP]
- X-ray crystal structure, 1.65 Å (SeMet protein) (Psy-Lig): AMP bound in the active site was clear in the observed electron density, covalently linked

B1: Psy-Lig (Psychromonas sp. SP041) (protein)
chain: QPPPIQLATNYRQDIDVTQYYVSEKLDGIRAYWNGHQLISKQGNIFTAPTWFIASFPTTAMDGELWIARQQFETVSGIARTQDNQNEQWKQIKFMIFDLPKSTVSFEQRINKMQTLVTDTNSPYLQMIEQQKIPNTVALFDLLNKVVMGKGEGLMLHHQDALYQTKRSRDLMKLKKFEDAEATVIAYLPGKGKYEGLLGAILVKNEEGVTFKIGSGFSDEERSTPPPIGSLITYRFTGKTNNNIPRFASFVRIRVIY
notes: mature protein, 40-residue periplasmic leader removed (cleavage Ala40/Gln41), 257 residues; N-terminal His tag and TEV site, vector pHMGWA, expressed in E. coli; pre-adenylated with ATP; SeMet form crystallised
- Km [1]: 3.8 ± 0.7 µM
